From ChEMBL document CHEMBL3046265, “Synthesis, evaluation of antimicrobial activity, and molecular modeling of novel 2-((4-(2H-benzo[d] [1,2,3] triazol-2-yl)piperidin-1-yl)methyl)-5-substituted phenyl-1,3,4-oxadiazoles” (2013)

Tests used:
Type in all cases: functional
Settings in all cases: read-out: IZ
Fusarium oxysporum [1] = experiment: Antifungal activity against Fusarium oxysporum at 300 ug/ml after 48 hr
Candida albicans [2] = experiment: Antifungal activity against Candida albicans at 1200 ug/ml after 48 hr
Staphylococcus aureus [3] = experiment: Antibacterial activity against Staphylococcus aureus at 600 ug/ml after overnight incubation
Staphylococcus aureus [4] = experiment: Antibacterial activity against Staphylococcus aureus at 900 ug/ml after overnight incubation
Bacillus pumilus [5] = experiment: Antibacterial activity against Bacillus pumilus at 600 ug/ml after overnight incubation
Klebsiella pneumoniae [6] = experiment: Antibacterial activity against Klebsiella pneumoniae at 600 ug/ml after overnight incubation
Bacillus subtilis [7] = experiment: Antibacterial activity against Bacillus subtilis at 900 ug/ml after overnight incubation
Colletotrichum falcatum [8] = experiment: Antifungal activity against Glomerella tucumanensis at 1200 ug/ml after 48 hr
Streptococcus pyogenes [9] = experiment: Antibacterial activity against Streptococcus pyogenes at 600 ug/ml after overnight incubation
Exserohilum rostratum [10] = experiment: Antifungal activity against Setosphaeria rostrata at 600 ug/ml after 48 hr
Enterococcus faecalis [11] = experiment: Antibacterial activity against Enterococcus faecalis at 900 ug/ml after overnight incubation
Fusarium oxysporum [12] = experiment: Antifungal activity against Fusarium oxysporum at 900 ug/ml after 48 hr
Colletotrichum falcatum [13] = experiment: Antifungal activity against Glomerella tucumanensis at 900 ug/ml after 48 hr
Bacillus pumilus [14] = experiment: Antibacterial activity against Bacillus pumilus at 900 ug/ml after overnight incubation
Candida albicans [15] = experiment: Antifungal activity against Candida albicans at 300 ug/ml after 48 hr
Escherichia coli [16] = experiment: Antibacterial activity against Escherichia coli at 900 ug/ml after overnight incubation
Klebsiella pneumoniae [17] = experiment: Antibacterial activity against Klebsiella pneumoniae at 900 ug/ml after overnight incubation
Klebsiella aerogenes [18] = experiment: Antibacterial activity against Enterobacter aerogenes at 600 ug/ml after overnight incubation
Exserohilum rostratum [19] = experiment: Antifungal activity against Setosphaeria rostrata at 1200 ug/ml after 48 hr
Exserohilum rostratum [20] = experiment: Antifungal activity against Setosphaeria rostrata at 900 ug/ml after 48 hr
Colletotrichum falcatum [21] = experiment: Antifungal activity against Glomerella tucumanensis at 600 ug/ml after 48 hr
Priestia megaterium [22] = experiment: Antibacterial activity against Bacillus megaterium at 900 ug/ml after overnight incubation
Fusarium oxysporum [23] = experiment: Antifungal activity against Fusarium oxysporum at 600 ug/ml after 48 hr
Priestia megaterium [24] = experiment: Antibacterial activity against Bacillus megaterium at 600 ug/ml after overnight incubation
Colletotrichum falcatum [25] = experiment: Antifungal activity against Glomerella tucumanensis at 300 ug/ml after 48 hr
Proteus vulgaris [26] = experiment: Antibacterial activity against Proteus vulgaris at 900 ug/ml after overnight incubation
Exserohilum rostratum [27] = experiment: Antifungal activity against Setosphaeria rostrata at 300 ug/ml after 48 hr
Klebsiella aerogenes [28] = experiment: Antibacterial activity against Enterobacter aerogenes at 900 ug/ml after overnight incubation
Candida albicans [29] = experiment: Antifungal activity against Candida albicans at 900 ug/ml after 48 hr
Enterococcus faecalis [30] = experiment: Antibacterial activity against Enterococcus faecalis at 600 ug/ml after overnight incubation
Escherichia coli [31] = experiment: Antibacterial activity against Escherichia coli at 600 ug/ml after overnight incubation
Proteus vulgaris [32] = experiment: Antibacterial activity against Proteus vulgaris at 600 ug/ml after overnight incubation
Fusarium oxysporum [33] = experiment: Antifungal activity against Fusarium oxysporum at 1200 ug/ml after 48 hr
Streptococcus pyogenes [34] = experiment: Antibacterial activity against Streptococcus pyogenes at 900 ug/ml after overnight incubation
Bacillus subtilis [35] = experiment: Antibacterial activity against Bacillus subtilis at 600 ug/ml after overnight incubation
Candida albicans [36] = experiment: Antifungal activity against Candida albicans at 600 ug/ml after 48 hr

| Structure (SMILES) | zone of inhibition at 300 µg/mL (Fusarium oxysporum [1]) | zone of inhibition at 1200 µg/mL (Candida albicans [2]) | zone of inhibition at 600 µg/mL (Staphylococcus aureus [3]) | zone of inhibition at 900 µg/mL (Staphylococcus aureus [4]) | zone of inhibition at 600 µg/mL (Bacillus pumilus [5]) | zone of inhibition at 600 µg/mL (Klebsiella pneumoniae [6]) | zone of inhibition at 900 µg/mL (Bacillus subtilis [7]) | zone of inhibition at 1200 µg/mL (Colletotrichum falcatum [8]) | zone of inhibition at 600 µg/mL (Streptococcus pyogenes [9]) | zone of inhibition at 600 µg/mL (Exserohilum rostratum [10]) | zone of inhibition at 900 µg/mL (Enterococcus faecalis [11]) | zone of inhibition at 900 µg/mL (Fusarium oxysporum [12]) | zone of inhibition at 900 µg/mL (Colletotrichum falcatum [13]) | zone of inhibition at 900 µg/mL (Bacillus pumilus [14]) | zone of inhibition at 300 µg/mL (Candida albicans [15]) | zone of inhibition at 900 µg/mL (Escherichia coli [16]) | zone of inhibition at 900 µg/mL (Klebsiella pneumoniae [17]) | zone of inhibition at 600 µg/mL (Klebsiella aerogenes [18]) | zone of inhibition at 1200 µg/mL (Exserohilum rostratum [19]) | zone of inhibition at 900 µg/mL (Exserohilum rostratum [20]) | other results |
| --- | --- | --- | --- | --- | --- | --- | --- | --- | --- | --- | --- | --- | --- | --- | --- | --- | --- | --- | --- | --- | --- |
| Fc1cccc(-c2nnc(CN3CCC(n4nc5ccccc5n4)CC3)o2)c1F | 4.21 mm | 17.2 mm | 4.25 mm | 7.56 mm | 3.35 mm | 6.23 mm | 9.56 mm | 33.9 mm | 1.13 mm | 7.86 mm | 5.36 mm | 13.2 mm | 17.8 mm | 7.24 mm | 3.33 mm | 7.15 mm | 13.2 mm | 2.09 mm | 29.8 mm | 15 mm | zone of inhibition at 600 µg/mL (Colletotrichum falcatum [21]): 9.25 mm; zone of inhibition at 900 µg/mL (Priestia megaterium [22]): 11.2 mm; zone of inhibition at 600 µg/mL (Fusarium oxysporum [23]): 7.01 mm; zone of inhibition at 600 µg/mL (Priestia megaterium [24]): 5.86 mm; zone of inhibition at 300 µg/mL (Colletotrichum falcatum [25]): 4.82 mm; zone of inhibition at 900 µg/mL (Proteus vulgaris [26]): 8.74 mm; zone of inhibition at 300 µg/mL (Exserohilum rostratum [27]): 3.81 mm; zone of inhibition at 900 µg/mL (Klebsiella aerogenes [28]): 5.45 mm; zone of inhibition at 900 µg/mL (Candida albicans [29]): 9.86 mm; zone of inhibition at 600 µg/mL (Enterococcus faecalis [30]): 2.35 mm; zone of inhibition at 600 µg/mL (Escherichia coli [31]): 3.25 mm; zone of inhibition at 600 µg/mL (Proteus vulgaris [32]): 4.56 mm; zone of inhibition at 1200 µg/mL (Fusarium oxysporum [33]): 25.4 mm; zone of inhibition at 900 µg/mL (Streptococcus pyogenes [34]): 3.15 mm; zone of inhibition at 600 µg/mL (Bacillus subtilis [35]): 4.8 mm; zone of inhibition at 600 µg/mL (Candida albicans [36]): 5.25 mm |
| Cc1c(Br)cccc1-c1nnc(CN2CCC(n3nc4ccccc4n3)CC2)o1 | 3.42 mm | 17.9 mm | 4.8 mm | 10 mm | 4.29 mm | 5.25 mm | 9.8 mm | 29.3 mm | 4.82 mm | 5.25 mm | 12.1 mm | 13.3 mm | 15.4 mm | 8.54 mm | 2.09 mm | 9.46 mm | 10.2 mm | 3.65 mm | 23.9 mm | 11.3 mm | zone of inhibition at 600 µg/mL (Colletotrichum falcatum [21]): 8.25 mm; zone of inhibition at 900 µg/mL (Priestia megaterium [22]): 10.3 mm; zone of inhibition at 600 µg/mL (Fusarium oxysporum [23]): 6.56 mm; zone of inhibition at 600 µg/mL (Priestia megaterium [24]): 5.3 mm; zone of inhibition at 300 µg/mL (Colletotrichum falcatum [25]): 3.97 mm; zone of inhibition at 900 µg/mL (Proteus vulgaris [26]): 7.05 mm; zone of inhibition at 300 µg/mL (Exserohilum rostratum [27]): 2.98 mm; zone of inhibition at 900 µg/mL (Klebsiella aerogenes [28]): 7.56 mm; zone of inhibition at 900 µg/mL (Candida albicans [29]): 9.36 mm; zone of inhibition at 600 µg/mL (Enterococcus faecalis [30]): 5.92 mm; zone of inhibition at 600 µg/mL (Escherichia coli [31]): 5.23 mm; zone of inhibition at 600 µg/mL (Proteus vulgaris [32]): 3.45 mm; zone of inhibition at 1200 µg/mL (Fusarium oxysporum [33]): 24.9 mm; zone of inhibition at 900 µg/mL (Streptococcus pyogenes [34]): 9.25 mm; zone of inhibition at 600 µg/mL (Bacillus subtilis [35]): 4.8 mm; zone of inhibition at 600 µg/mL (Candida albicans [36]): 4.18 mm |
| c1ccc(-c2nnc(CN3CCC(n4nc5ccccc5n4)CC3)o2)cc1 | 2.25 mm | 24.2 mm | 3.26 mm | 8.25 mm | 4.25 mm | 3.35 mm | 5.45 mm | 27.9 mm | 4.01 mm | 6.25 mm | 9.25 mm | 10.2 mm | 13.2 mm | 8.65 mm | 3.12 mm | 4.85 mm | 6.56 mm | 5.82 mm | 24 mm | 11.8 mm | zone of inhibition at 600 µg/mL (Colletotrichum falcatum [21]): 7.26 mm; zone of inhibition at 900 µg/mL (Priestia megaterium [22]): 11.4 mm; zone of inhibition at 600 µg/mL (Fusarium oxysporum [23]): 4.85 mm; zone of inhibition at 600 µg/mL (Priestia megaterium [24]): 5.82 mm; zone of inhibition at 300 µg/mL (Colletotrichum falcatum [25]): 3.56 mm; zone of inhibition at 900 µg/mL (Proteus vulgaris [26]): 7.5 mm; zone of inhibition at 300 µg/mL (Exserohilum rostratum [27]): 3.15 mm; zone of inhibition at 900 µg/mL (Klebsiella aerogenes [28]): 11.2 mm; zone of inhibition at 900 µg/mL (Candida albicans [29]): 13.2 mm; zone of inhibition at 600 µg/mL (Enterococcus faecalis [30]): 4.25 mm; zone of inhibition at 600 µg/mL (Escherichia coli [31]): 2.24 mm; zone of inhibition at 600 µg/mL (Proteus vulgaris [32]): 3.8 mm; zone of inhibition at 1200 µg/mL (Fusarium oxysporum [33]): 21.3 mm; zone of inhibition at 900 µg/mL (Streptococcus pyogenes [34]): 8.25 mm; zone of inhibition at 600 µg/mL (Bacillus subtilis [35]): 2.65 mm; zone of inhibition at 600 µg/mL (Candida albicans [36]): 6.05 mm |
